{"source": "patent US8759512B2", "about": "“Methods of preparation of macrocyclic compounds” (University of Florida Research Foundation, Inc., priority 2008, dated 2014)", "key": {"HDAC": {"tested_on": "HDAC", "assay": "HCT-116 HDAC cellular assay (Fluor de Lys substrate)", "assay_type": "cell-based", "conditions": "HCT-116, 8 h, fluorogenic HDAC substrate"}, "[1]": {"tested_on": "HeLa nuclear extract HDACs (class I HDACs 1, 2, and 3)", "assay": "HeLa nuclear extract HDAC inhibition", "assay_type": "biochemical", "conditions": "HeLa cell nuclear protein extract", "source_text": "Largazole (21) inhibited HDAC activity from a HeLa cell nuclear protein extract rich in class I HDACs 1, 2, and 3 (BIOMOL); however, it is possible that the thioester is cleaved under assay conditions. To investigate that thiol 29 is a reactive species, we liberated 29 from the acetyl analog 28 of largazole (21) and measured enzymatic activity directly; thiol […] inhibited the HDACs in the nuclear extract of HeLa cells with a similar IC50 value (Table 3)."}, "HCT-116 cells": {"tested_on": "HCT-116 cells", "assay": "HCT-116 growth inhibition", "assay_type": "cell-based"}, "NIH3T3 cells": {"tested_on": "NIH3T3 cells", "assay_type": "cell-based", "conditions": "NIH3T3, 48 h, MTT", "procedure": "Cell culture medium was purchased from Invitrogen and fetal bovine serum (FBS) from Hyclone. Cells were propagated and maintained in DMEM medium (high glucose) supplemented with 10% FBS at 37° C. humidified air and 5% CO2.\nCells suspended in DMEM containing 10% FBS were plated in 96-well plates (MDA-MB-231: 12,000 cells; NMuMG: 5,000 cells; U2OS: 5,000 cells; HT29: 10,000 cells; IMR-32: 30,000 cells; NIH3T3: 5,000 cells) incubated (37° C., 5% CO2) and 24 h later treated with various concentrations of compound 21 or solvent control (1% EtOH). After another 48 h of incubation, cell viability was measured using MTT according to manufacturer's instructions (Promega).\nMDA-MB-231 and NMuMG cells were also treated with paclitaxel (in DMSO), actinomycin D (in DMSO) and doxorubicin (in H2O) and corresponding solvent control (1%) in the same manner. GI50 and LC50 values were calculated as previously described (K. D. Paull, E. Hamel, L. Malspeis, In Cancer Chemotherapeutic Agents, W. E. Foye, Ed., American Chemical Society, Washington, D.C., 1995, pp. 10-11).\n[formula] [T=absorbance in treated wells (48 h); T0=absorbance at time zero; C=absorbance in control wells (48 h)]"}}, "data": [{"smiles": "CC(=O)SCC/C=C/[C@@H]1CC(=O)NCc2nc(cs2)C2=N[C@@](C)(CS2)C(=O)N[C@@H](C(C)C)C(=O)O1", "note": "[Compound 28]", "values": [{"measurement": "IC50", "setting": "HDAC", "value": "50 ± 18", "unit": "nM"}, {"measurement": "IC50", "setting": "[1]", "value": "52 ± 27", "unit": "nM"}, {"measurement": "GI50", "setting": "HCT-116 cells", "value": "33 ± 2", "unit": "nM"}]}, {"smiles": "CCCCCCCC(=O)SCC/C=C/[C@@H]1CC(=O)NCc2nc(cs2)C2=N[C@@](C)(CS2)C(=O)N[C@@H](C(C)C)C(=O)O1", "note": "[Compound 21, Largazole]", "values": [{"measurement": "toxicity (cytotoxicity)", "setting": "NIH3T3 cells", "value": "no apparent toxicity"}]}]}
